Experimental data reported in patent US20240360146A1, “BRUTON'S TYROSINE KINASE AND MUTANT DEGRADER, COMPOSITION AND APPLICATION THEREOF” (HANGZHOU HEALZEN THERAPEUTICS CO., LTD., priority 2021, published 2024).

Target: T1, BTK (Homo sapiens, UniProt Q06187)
T1 construct: endogenous in cells; host or cells: Mino cells
Experiment: BTK degradation activity test in Mino cells
Format: cell-based
Settings: 16 h incubation, Western blot or Elisa
Method in brief: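 DC50 derived by curve fitting of BTK degradation rates versus untreated control across compound concentrations. Mino cells were exposed for 16 h; BTK levels in lysates, normalised via BCA protein, measured by Western blot or ELISA.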

T1 sequence (Q06187 whole entry): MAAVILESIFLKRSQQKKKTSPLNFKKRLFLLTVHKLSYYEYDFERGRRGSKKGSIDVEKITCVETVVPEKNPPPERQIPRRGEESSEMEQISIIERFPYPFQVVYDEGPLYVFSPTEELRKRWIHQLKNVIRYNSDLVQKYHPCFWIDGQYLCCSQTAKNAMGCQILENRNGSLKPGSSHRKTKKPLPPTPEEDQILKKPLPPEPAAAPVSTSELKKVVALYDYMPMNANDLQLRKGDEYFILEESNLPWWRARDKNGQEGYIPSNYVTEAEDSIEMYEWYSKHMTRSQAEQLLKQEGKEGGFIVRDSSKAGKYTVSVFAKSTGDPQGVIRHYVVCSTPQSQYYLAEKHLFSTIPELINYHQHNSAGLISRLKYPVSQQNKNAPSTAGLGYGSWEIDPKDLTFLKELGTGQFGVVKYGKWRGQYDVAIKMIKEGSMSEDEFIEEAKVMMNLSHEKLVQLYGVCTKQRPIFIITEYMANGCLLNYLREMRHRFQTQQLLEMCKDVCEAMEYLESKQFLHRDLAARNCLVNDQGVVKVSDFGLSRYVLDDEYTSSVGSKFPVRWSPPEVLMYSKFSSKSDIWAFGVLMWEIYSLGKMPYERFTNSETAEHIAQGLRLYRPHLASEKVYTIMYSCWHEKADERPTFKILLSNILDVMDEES

DC50, < 1 nM:
NC(=O)c1nnc(N2CCCC(N3CCN(c4ccccc4)C3=O)C2)nc1Nc1ccc(C2CCN(C3CCN(c4ccc5c(c4)C(=O)N(C4CCC(=O)NC4=O)C5=O)CC3)CC2)cc1 (stereo not drawn) [Compound 096, 5-((4-(1′-(2-(2,6-dioxopiperidin-3-yl)-1,3-dioxoisoindol-5-yl)-[1,4′-bipiperidin]-4-yl)phenyl)amino)-3-(3-(2-oxo-3-phenylimidazolin-1-yl)piperidin-1-yl)-1,2,4-triazin-6-carboxamide]
CN1CCN([C@@H]2CCCN(c3nnc(C(N)=O)c(Nc4ccc(N5CCN(CC6CCN(c7ccc(NC8CCC(=O)NC8=O)cc7F)CC6)CC5)c(F)c4)n3)C2)C1=O (stereo partly drawn) [Compound 251]
CN1CCN(C2CC3CC2N(c2nnc(C(N)=O)c(Nc4ccc5c(c4)CCN(CC4CCN(c6ccc7c(c6)C(=O)N(C6CCC(=O)NC6=O)C7=O)CC4)C5)n2)C3)C1=O (stereo not drawn) [Compound 107, 5-((2-((1-(2-(2,6-dioxopiperidin-3-yl)-1,3-dioxoisoindol-5-yl)piperidin-4-yl)methyl)-1,2,3,4-tetrahydroisoquinolin-6-yl)amino)-3-(6-(3-methyl-2-oxoimidazolin-1-yl)-2-azabicyclo[2.2.1]heptan-2-yl)-1,2,4-triazin-6-carboxamide]
CN1CCN([C@@H]2CCCN(c3nnc(C(N)=O)c(Nc4ccc(N5CCN(CC6CCN(c7ccc(NC8CCC(=O)NC8=O)c8c7OCO8)C6)CC5)c(F)c4)n3)C2)C1=O (stereo partly drawn) [Compound 208, 5-((4-(4-((1-(7-((2,6-dioxopiperidin-3-yl)amino)benzo[d][1,3]dioxacyclopent-4-yl)pyrrolidin-3-yl)methyl)piperazin-1-yl)-3-fluorophenyl)amino)-3-((R)-3-(3-methyl-2-oxoimidazolidin-1-yl)piperidin-1-yl)-1,2,4-triazin-6-carboxamide]
Cn1c(=O)n(C2CCCN(c3cnc(C(N)=O)c(Nc4ccc(C5(C)CCN(C6CN(c7ccc8c(c7)C(=O)N(C7CCC(=O)NC7=O)C8=O)C6)CC5)cc4)n3)C2)c2ccccc21 (stereo not drawn) [Compound 025, 3-((4-(1-(1-(2-(2,6-dioxopiperidin-3-yl)-1,3-dioxoisoindol-5-yl)azetidin-3-yl)-4-methylpiperidin-4-yl)phenyl)amino)-5-(3-(3-methyl-2-oxo-2,3-dihydro-1H-benzo[d]imidazol-1-yl)piperidin-1-yl)pyrazin-2-carboxamide]
NC(=O)c1ncc(N2CCCC(N3CCN(C4COC4)C3=O)C2)nc1Nc1ccc(N2CC3(C2)CN(c2ccc4c(c2)C(=O)N(C2CCC(=O)NC2=O)C4=O)C3)cc1 (stereo not drawn) [Compound 018, 3-((4-(6-(2-(2,6-dioxopiperidin-3-yl)-1,3-dioxoisoindol-5-yl)-2,6-diazaspirocyclo[3.3]heptan-2-yl)phenyl)amino)-5-(3-(3-(oxetan-3-yl)-2-oxoimidazolin-1-yl)piperidin-1-yl)pyrazin-2-carboxamide]
CN1CCN([C@@H]2CCCN(c3nnc(C(N)=O)c(Nc4ccc(N5CCN(CC6CCN(c7ccc(C(=O)NC8CCC(=O)NC8=O)c8c7OCO8)C6)CC5)c(F)c4)n3)C2)C1=O (stereo partly drawn) [Compound 176, 5-((4-(4-((1-(7-((2,6-dioxopiperidin-3-yl)carbamoyl)benzo[d][1,3]dioxacyclopent-4-yl)pyrrolidin-3-yl)methyl)piperazin-1-yl)-3-fluorophenyl)amino)-3-((R)-3-(3-methyl-2-oxoimidazolidin-1-yl)piperidin-1-yl)-1,2,4-triazin-6-carboxamide]
Cn1c(=O)n(C2CCC(=O)NC2=O)c2cccc(N3CC(N4CCC(C)(c5ccc(Nc6nc(N7CCCC(N8CCN(C9CCCC9)C8=O)C7)cnc6C(N)=O)cc5)CC4)C3)c21 (stereo not drawn) [Compound 022]
NC(=O)c1nnc(N2CCCC(N3CCN(C(F)(F)F)C3=O)C2)nc1Nc1ccc(C2CCN(CC3CCN(c4ccc5c(c4)C(=O)N(C4CCC(=O)NC4=O)C5=O)CC3)CC2)cc1 (stereo not drawn) [Compound 056, 5-((4-(1-((1-(2-(2,6-dioxopiperidin-3-yl)-1,3-dioxoisoindol-5-yl)piperidin-4-yl)methyl)piperidin-4-yl)phenyl)amino)-3-(3-(2-oxo-3-(trifluoromethyl)imidazolin-1-yl)piperidin-1-yl)-1,2,4-triazin-6-carboxamide]
CN1CCN([C@@H]2CCCN(c3nnc(C(N)=O)c(Nc4ccc(N5CCN(CC6CCN(c7ccc(NC8CCC(=O)NC8=O)nc7)C6)CC5)c(F)c4)n3)C2)C1=O (stereo partly drawn) [Compound 200, 5-((4-(4-((1-(6-((2,6-dioxopiperidin-3-yl)amino)pyridin-3-yl)pyrrolidin-3-yl)methyl)piperazin-1-yl)-3-fluorophenyl)amino)-3-((R)-3-(3-methyl-2-oxoimidazolidin-1-yl)piperidin-1-yl)-1,2,4-triazin-6-carboxamide]
CC1(c2ccc(Nc3nc(N4CCCC(N5CCN(C6COC6)C5=O)C4)cnc3C(N)=O)cc2)CCN(C2CN(c3ccc4c(c3)C(=O)N(C3CCC(=O)NC3=O)C4=O)C2)CC1 (stereo not drawn) [Compound 002, 3-((4-(1-(1-(2-(2,6-dioxopiperidin-3-yl)-1,3-dioxoisoindol-5-yl)azetidine-3-yl)-4-methylpiperidin-4-yl)phenyl)amino)-5-(3-(3-(oxetan-3-yl)-2-oxoimidazolin-1-yl)piperidin-1-yl)pyrazin-2-carboxamide]
CN1CCN([C@@H]2CCCN(c3nnc(C(N)=O)c(Nc4ccc(N5CCN(CC6CCN(c7ccc(N8CCC(=O)NC8=O)c8c7OCCO8)CC6)CC5)c(F)c4)n3)C2)C1=O [Compound 193, (R)-5-((4-(4-((1-(8-(2,4-dioxotetrahydropyrimidin-1(2H)-yl)-2,3-dihydrobenzo[b][1,4]dioxan-5-yl)piperidin-4-yl)methyl)piperazin-1-yl)-3-fluorophenyl)amino)-3-(3-(3-methyl-2-oxoimidazolidin-1-yl)piperidin-1-yl)-1,2,4-triazin-6-carboxamide]
NC(=O)c1nnc(N2CC3CC(N4CCN(C5CCCC5)C4=O)C2C3)nc1Nc1ccc(C2CCN(CC3CCN(c4ccc5c(c4)C(=O)N(C4CCC(=O)NC4=O)C5=O)CC3)CC2)cc1 (stereo not drawn) [Compound 072, 3-(6-(3-cyclopentyl-2-oxoimidazolin-1-yl)-2-azabicyclo[2.2.1]heptan-2-yl)-5-((4-(1-((1-(2-(2,6-dioxopiperidin-3-yl)-1,3-dioxoisoindol-5-yl)piperidin-4-yl)methyl)piperidin-4-yl)phenyl)amino)-1,2,4-triazin-6-carboxamide]
CN1CCN([C@@H]2CCCN(c3nnc(C(N)=O)c(Nc4ccc(N5CCN(CC#Cc6ccn7c(N8CCC(=O)NC8=O)cnc7c6)CC5)c(F)c4)n3)C2)C1=O [Compound 246, (R)-5-((4-(4-(3-(3-(2,4-dioxotetrahydropyrimidin-1(2H)-yl)imidazo[1,2-a]pyridin-7-yl)propan-2-yn-1-yl)piperazin-1-yl)-3-fluorophenyl)amino)-3-(3-(3-methyl-2-oxoimidazolidin-1-yl)piperidin-1-yl)-1,2,4-triazin-6-carboxamide]
Cn1c(=O)n(C2CCC(=O)NC2=O)c2ccc(N3CCC(CN4CCC(c5ccc(Nc6nc(N7CCCC(N8CCN(c9ccccc9)C8=O)C7)nnc6C(N)=O)cc5)CC4)CC3)cc21 (stereo not drawn) [Compound 101]
NC(=O)c1nnc(N2CCCC(N3CCN(c4cccc(F)c4)C3=O)C2)nc1Nc1ccc(C2CCN(CC3CCN(c4ccc5c(c4)C(=O)N(C4CCC(=O)NC4=O)C5=O)CC3)CC2)cc1 (stereo not drawn) [Compound 066, 5-((4-(1-((1-(2-(2,6-dioxopiperidin-3-yl)-1,3-dioxoisoindol-5-yl)piperidin-4-yl)methyl)piperidin-4-yl)phenyl)amino)-3-(3-(3-(3-fluorophenyl)-2-oxoimidazolin-1-yl)piperidin-1-yl)-1,2,4-triazin-6-carboxamide]
CN1CCN([C@@H]2CCCN(c3nnc(C(N)=O)c(Nc4ccc(N5CCN(CC6CCN(c7ccc(NC8CCC(=O)NC8=O)cc7C(F)(F)F)CC6)CC5)c(F)c4)n3)C2)C1=O (stereo partly drawn) [Compound 252]
CC1(c2ccc(Nc3nc(N4CCCC(N5CCN(C6COC6)C5=O)C4)cnc3C(N)=O)cc2)CCN(C2CN(c3ccc4c(c3)CN(C3CCC(=O)NC3=O)C4=O)C2)CC1 (stereo not drawn) [Compound 014, 3-((4-(1-(1-(2-(2,6-dioxopiperidin-3-yl)-1-oxoisoindol-5-yl)azetidin-3-yl)-4-methylpiperidin-4-yl)phenyl)amino)-5-(3-(3-(oxetan-3-yl)-2-oxoimidazolin-1-yl)piperidin-1-yl)pyrazin-2-carboxamide]
CN1CCN([C@@H]2CCCN(c3nnc(C(N)=O)c(Nc4ccc(N5CCN(CC6CCN(c7ccc8c(c7)C(=O)N(C7CCC(=O)NC7=O)C8=O)CC6)CC5)c(Cl)c4)n3)C2)C1=O (stereo partly drawn) [Compound 164, 5-((3-chloro-4-(4-((1-(2-(2,6-dioxopiperidin-3-yl)-1,3-dioxoisoindolin-5-yl)piperidin-4-yl)methyl)piperazin-1-yl)phenyl)amino)-3-((R)-3-(3-methyl-2-oxoimidazolidin-1-yl)piperidin-1-yl)-1,2,4-triazin-6-carboxamide]
CN1CCN([C@@H]2CCCN(c3nnc(C(N)=O)c(Nc4ccc(N5CCN(CC6CCN(c7ccc(N8CCC(=O)NC8=O)c(C8CC8)c7)CC6)CC5)c(F)c4)n3)C2)C1=O [Compound 194, (R)-5-((4-(4-((1-(3-cyclopropyl-4-(2,4-dioxotetrahydropyrimidin-1(2H)-yl)phenyl)piperidin-4-yl)methyl)piperazin-1-yl)-3-fluorophenyl)amino)-3-(3-(3-methyl-2-oxoimidazolidin-1-yl)piperidin-1-yl)-1,2,4-triazin-6-carboxamide]
CN1CCN([C@@H]2CCCN(c3nnc(C(N)=O)c(Nc4ccc(C5CCN(CC6CCN(c7ccc(N8CCC(=O)NC8=O)cc7)CC6)CC5)c(CO)c4)n3)C2)C1=O [Compound 240, (R)-5-((4-(1-((1-(4-(2,4-dioxotetrahydropyrimidin-1(2H)-yl)phenyl)piperidin-4-yl)methyl)piperidin-4-yl)-3-(hydroxymethyl)phenyl)amino)-3-(3-(3-methyl-2-oxoimidazolidin-1-yl)piperidin-1-yl)-1,2,4-triazin-6-carboxamide]
